Laboratory results reported in ChEMBL document CHEMBL4507280 (2021).

Legend:
[1] = test system: Tyrosine-protein kinase ABL1 (Homo sapiens), P00519 [H396P]; details: Compound concentration 1000.0 nM
[2] = test system: Tyrosine-protein kinase ABL1 (Homo sapiens), P00519 [Q252H]; details: Compound concentration 1000.0 nM
[3] = test system: Tyrosine-protein kinase ABL1 (Homo sapiens), P00519 [T315I]; details: Compound concentration 1000.0 nM
[4] = target: RAC-alpha serine/threonine-protein kinase (Homo sapiens) (UniProt P31749); details: Compound concentration 1000.0 nM
[5] = target: NUAK family SNF1-like kinase 1 (Homo sapiens) (UniProt O60285); details: Compound concentration 1000.0 nM
[6] = target: Calcium/calmodulin-dependent protein kinase kinase 1 (Homo sapiens) (UniProt Q8N5S9); details: Compound concentration 1000.0 nM
[7] = target: Dual specificity protein kinase CLK4 (Homo sapiens) (UniProt Q9HAZ1); details: Compound concentration 1000.0 nM
[8] = target: Macrophage colony-stimulating factor 1 receptor (Homo sapiens) (UniProt P07333); details: Compound concentration 1000.0 nM
[9] = test system: Epidermal growth factor receptor (Homo sapiens), P00533 [L858R,T790M]; details: Compound concentration 1000.0 nM
[10] = target: Fibroblast growth factor receptor 2 (Homo sapiens) (UniProt P21802); details: Compound concentration 1000.0 nM
[11] = test system: Receptor-type tyrosine-protein kinase FLT3 (Homo sapiens), P36888 [D835Y]; details: Compound concentration 1000.0 nM
[12] = target: G protein-coupled receptor kinase 4 (Homo sapiens) (UniProt P32298); details: Compound concentration 1000.0 nM
[13] = target: Homeodomain-interacting protein kinase 4 (Homo sapiens) (UniProt Q8NE63); details: Compound concentration 1000.0 nM
[14] = target: Hormonally up-regulated neu tumor-associated kinase (Homo sapiens) (UniProt P57058); details: Compound concentration 1000.0 nM
[15] = target: Mast/stem cell growth factor receptor Kit (Homo sapiens) (UniProt P10721); details: Compound concentration 1000.0 nM
[16] = test system: Mast/stem cell growth factor receptor Kit (Homo sapiens), P10721 [A829P]; details: Compound concentration 1000.0 nM
[17] = test system: Mast/stem cell growth factor receptor Kit (Homo sapiens), P10721 [V559D,T670I]; details: Compound concentration 1000.0 nM
[18] = target: LIM domain kinase 1 (Homo sapiens) (UniProt P53667); details: Compound concentration 1000.0 nM
[19] = test system: Leucine-rich repeat serine/threonine-protein kinase 2 (Homo sapiens), Q5S007 [G2019S]; details: Compound concentration 1000.0 nM
[20] = target: Mitogen-activated protein kinase kinase kinase 2 (Homo sapiens) (UniProt Q9Y2U5); details: Compound concentration 1000.0 nM
[21] = target: Mitogen-activated protein kinase kinase kinase kinase 2 (Homo sapiens) (UniProt Q12851); details: Compound concentration 1000.0 nM
[22] = target: MAP kinase-activated protein kinase 2 (Homo sapiens) (UniProt P49137); details: Compound concentration 1000.0 nM
[23] = target: MAP kinase-activated protein kinase 5 (Homo sapiens) (UniProt Q8IW41); details: Compound concentration 1000.0 nM
[24] = target: MAP/microtubule affinity-regulating kinase 4 (Homo sapiens) (UniProt Q96L34); details: Compound concentration 1000.0 nM
[25] = test system: Hepatocyte growth factor receptor (Homo sapiens), P08581 [Y1235D]; details: Compound concentration 1000.0 nM
[26] = target: MAP kinase-interacting serine/threonine-protein kinase 2 (Homo sapiens) (UniProt Q9HBH9); details: Compound concentration 1000.0 nM
[27] = target: Serine/threonine-protein kinase NIM1 (Homo sapiens) (UniProt Q8IY84); details: Compound concentration 1000.0 nM
[28] = target: Mitogen-activated protein kinase 14 (Homo sapiens) (UniProt Q16539); details: Compound concentration 1000.0 nM
[29] = target: Cyclin-dependent kinase 2 homolog (Plasmodium falciparum (isolate 3D7)) (UniProt P61075); details: Compound concentration 1000.0 nM
[30] = target: Phosphatidylinositol 3-kinase C2 domain-containing subunit gamma (Homo sapiens) (UniProt O75747); details: Compound concentration 1000.0 nM
[31] = test system: Phosphatidylinositol 4,5-bisphosphate 3-kinase catalytic subunit alpha isoform (Homo sapiens), P42336 [I800L]; details: Compound concentration 1000.0 nM
[32] = target: Receptor-interacting serine/threonine-protein kinase 2 (Homo sapiens) (UniProt O43353); details: Compound concentration 1000.0 nM
[33] = target: SNF-related serine/threonine-protein kinase (Homo sapiens) (UniProt Q9NRH2); details: Compound concentration 1000.0 nM
[34] = target: SRSF protein kinase 3 (Homo sapiens) (UniProt Q9UPE1); details: Compound concentration 1000.0 nM
[35] = target: Dual specificity testis-specific protein kinase 1 (Homo sapiens) (UniProt Q15569); details: Compound concentration 1000.0 nM
[36] = target: Angiopoietin-1 receptor (Homo sapiens) (UniProt Q02763); details: Compound concentration 1000.0 nM
[37] = target: BDNF/NT-3 growth factors receptor (Homo sapiens) (UniProt Q16620); details: Compound concentration 1000.0 nM
[38] = target: Testis-specific serine/threonine-protein kinase 1 (Homo sapiens) (UniProt Q9BXA7); details: Compound concentration 1000.0 nM
[39] = target: Testis-specific serine/threonine-protein kinase 3 (Homo sapiens) (UniProt Q96PN8); details: Compound concentration 1000.0 nM
[40] = target: Tyrosine-protein kinase receptor TYRO3 (Homo sapiens) (UniProt Q06418); details: Compound concentration 1000.0 nM
[41] = target: 5-hydroxytryptamine receptor 2C (Homo sapiens) (UniProt P28335); details: Compound concentration 10.0 uM
[42] = target: 5-hydroxytryptamine receptor 3A (Homo sapiens) (UniProt P46098); details: Compound concentration 10.0 uM
[43] = target: Mu-type opioid receptor (Homo sapiens) (UniProt P35372); details: Compound concentration 10.0 uM
[44] = target: Muscarinic acetylcholine receptor M5 (Homo sapiens) (UniProt P08912); details: Compound concentration 10.0 uM

Sequence of Mast/stem cell growth factor receptor Kit (Homo sapiens), P10721 [V559D,T670I] (P10721 whole entry V559D/T670I, the tested form may be a part): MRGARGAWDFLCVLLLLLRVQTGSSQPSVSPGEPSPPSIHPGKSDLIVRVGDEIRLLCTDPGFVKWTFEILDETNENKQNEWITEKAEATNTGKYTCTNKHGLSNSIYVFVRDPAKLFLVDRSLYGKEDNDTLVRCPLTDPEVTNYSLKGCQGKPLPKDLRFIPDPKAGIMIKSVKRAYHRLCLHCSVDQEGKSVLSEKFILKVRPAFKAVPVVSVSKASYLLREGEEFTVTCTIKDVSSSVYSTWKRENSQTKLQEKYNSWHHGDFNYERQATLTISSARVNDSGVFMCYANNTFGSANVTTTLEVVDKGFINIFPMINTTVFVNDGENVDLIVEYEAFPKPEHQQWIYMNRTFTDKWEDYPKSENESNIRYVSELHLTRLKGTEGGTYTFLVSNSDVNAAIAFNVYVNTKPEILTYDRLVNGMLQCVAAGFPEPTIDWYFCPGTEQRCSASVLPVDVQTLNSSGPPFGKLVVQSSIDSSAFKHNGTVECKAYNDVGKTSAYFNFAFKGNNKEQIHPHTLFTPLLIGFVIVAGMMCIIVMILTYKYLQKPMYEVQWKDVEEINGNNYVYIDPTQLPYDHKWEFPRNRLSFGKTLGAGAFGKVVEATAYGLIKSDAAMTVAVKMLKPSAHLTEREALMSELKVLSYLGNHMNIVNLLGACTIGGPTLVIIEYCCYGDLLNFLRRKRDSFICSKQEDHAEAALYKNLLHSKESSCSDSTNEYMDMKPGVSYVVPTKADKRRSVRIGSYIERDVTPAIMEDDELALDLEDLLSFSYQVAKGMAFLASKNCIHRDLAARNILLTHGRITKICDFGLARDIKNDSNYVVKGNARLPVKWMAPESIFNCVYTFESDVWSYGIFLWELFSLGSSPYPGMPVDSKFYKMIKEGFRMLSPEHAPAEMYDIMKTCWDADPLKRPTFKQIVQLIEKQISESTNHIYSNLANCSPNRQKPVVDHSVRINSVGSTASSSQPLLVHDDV
Sequence of Mitogen-activated protein kinase kinase kinase kinase 2 (Homo sapiens) (Q12851 whole entry): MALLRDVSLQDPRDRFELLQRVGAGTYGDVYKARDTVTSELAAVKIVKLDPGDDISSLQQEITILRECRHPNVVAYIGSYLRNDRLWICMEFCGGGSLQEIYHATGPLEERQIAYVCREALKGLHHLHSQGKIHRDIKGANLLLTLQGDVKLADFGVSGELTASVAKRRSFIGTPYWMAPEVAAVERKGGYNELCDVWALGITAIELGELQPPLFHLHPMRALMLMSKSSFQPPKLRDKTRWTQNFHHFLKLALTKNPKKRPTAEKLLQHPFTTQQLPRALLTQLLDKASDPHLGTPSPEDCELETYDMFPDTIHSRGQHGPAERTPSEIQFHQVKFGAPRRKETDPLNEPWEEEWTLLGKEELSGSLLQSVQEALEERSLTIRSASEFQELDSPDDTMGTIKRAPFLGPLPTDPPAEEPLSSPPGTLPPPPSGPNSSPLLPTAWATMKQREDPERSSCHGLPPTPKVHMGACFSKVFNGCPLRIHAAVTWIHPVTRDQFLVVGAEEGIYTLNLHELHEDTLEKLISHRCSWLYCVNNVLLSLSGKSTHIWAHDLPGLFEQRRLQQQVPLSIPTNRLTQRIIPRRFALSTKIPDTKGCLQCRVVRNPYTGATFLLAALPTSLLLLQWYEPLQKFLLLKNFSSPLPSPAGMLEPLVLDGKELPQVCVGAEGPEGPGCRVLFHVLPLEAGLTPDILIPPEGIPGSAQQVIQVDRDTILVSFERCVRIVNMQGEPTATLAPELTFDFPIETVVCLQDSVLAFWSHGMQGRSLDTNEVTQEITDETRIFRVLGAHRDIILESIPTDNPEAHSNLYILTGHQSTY
Sequence of RAC-alpha serine/threonine-protein kinase (Homo sapiens) (P31749 whole entry): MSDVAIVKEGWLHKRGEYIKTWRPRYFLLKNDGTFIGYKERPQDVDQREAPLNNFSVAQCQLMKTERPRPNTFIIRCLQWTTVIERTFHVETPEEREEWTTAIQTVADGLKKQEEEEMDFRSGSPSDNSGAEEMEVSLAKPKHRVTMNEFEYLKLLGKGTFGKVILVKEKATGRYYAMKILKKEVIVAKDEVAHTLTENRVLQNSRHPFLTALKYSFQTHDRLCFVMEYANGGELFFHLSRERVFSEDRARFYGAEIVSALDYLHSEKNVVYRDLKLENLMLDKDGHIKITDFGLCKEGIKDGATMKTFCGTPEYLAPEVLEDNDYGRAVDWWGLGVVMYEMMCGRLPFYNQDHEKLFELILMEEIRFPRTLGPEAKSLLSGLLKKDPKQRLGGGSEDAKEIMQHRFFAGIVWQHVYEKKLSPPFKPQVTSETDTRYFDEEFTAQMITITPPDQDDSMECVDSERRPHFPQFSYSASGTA
Sequence of G protein-coupled receptor kinase 4 (Homo sapiens) (P32298 whole entry, looked up): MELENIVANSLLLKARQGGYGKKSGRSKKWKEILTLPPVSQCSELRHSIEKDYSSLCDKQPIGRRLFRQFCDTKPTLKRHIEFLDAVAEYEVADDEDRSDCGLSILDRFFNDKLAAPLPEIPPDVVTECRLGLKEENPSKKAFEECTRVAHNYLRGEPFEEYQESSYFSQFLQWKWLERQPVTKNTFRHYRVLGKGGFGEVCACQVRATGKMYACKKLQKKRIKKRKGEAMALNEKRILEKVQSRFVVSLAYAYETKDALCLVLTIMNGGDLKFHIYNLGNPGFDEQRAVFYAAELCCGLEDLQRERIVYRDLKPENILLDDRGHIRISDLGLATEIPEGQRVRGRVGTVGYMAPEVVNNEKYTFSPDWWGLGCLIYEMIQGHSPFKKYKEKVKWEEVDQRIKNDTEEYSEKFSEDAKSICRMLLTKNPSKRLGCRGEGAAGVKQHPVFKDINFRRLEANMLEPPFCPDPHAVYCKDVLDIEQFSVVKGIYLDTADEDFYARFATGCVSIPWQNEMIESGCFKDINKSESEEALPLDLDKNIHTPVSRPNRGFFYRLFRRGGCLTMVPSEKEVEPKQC
Sequence of MAP kinase-activated protein kinase 2 (Homo sapiens) (P49137 whole entry, looked up): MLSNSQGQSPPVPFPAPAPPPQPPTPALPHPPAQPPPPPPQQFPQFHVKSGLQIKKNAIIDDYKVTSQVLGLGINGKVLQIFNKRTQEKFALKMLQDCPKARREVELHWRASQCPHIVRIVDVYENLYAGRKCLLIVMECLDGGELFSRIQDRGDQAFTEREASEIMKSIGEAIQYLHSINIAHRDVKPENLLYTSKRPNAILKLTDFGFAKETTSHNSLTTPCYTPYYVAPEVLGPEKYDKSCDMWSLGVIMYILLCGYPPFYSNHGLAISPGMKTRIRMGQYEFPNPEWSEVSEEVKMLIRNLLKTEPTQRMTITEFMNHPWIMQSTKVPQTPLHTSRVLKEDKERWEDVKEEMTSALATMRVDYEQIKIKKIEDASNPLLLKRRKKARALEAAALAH
Sequence of Testis-specific serine/threonine-protein kinase 3 (Homo sapiens) (Q96PN8 whole entry): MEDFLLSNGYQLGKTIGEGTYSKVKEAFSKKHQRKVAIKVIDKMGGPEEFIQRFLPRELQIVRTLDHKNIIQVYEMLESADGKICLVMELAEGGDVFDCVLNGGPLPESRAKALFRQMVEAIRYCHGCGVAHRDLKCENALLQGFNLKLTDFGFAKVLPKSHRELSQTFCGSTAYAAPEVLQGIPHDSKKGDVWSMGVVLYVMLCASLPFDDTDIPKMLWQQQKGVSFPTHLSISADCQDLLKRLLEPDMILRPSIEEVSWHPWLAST
Sequence of 5-hydroxytryptamine receptor 2C (Homo sapiens) (P28335 whole entry): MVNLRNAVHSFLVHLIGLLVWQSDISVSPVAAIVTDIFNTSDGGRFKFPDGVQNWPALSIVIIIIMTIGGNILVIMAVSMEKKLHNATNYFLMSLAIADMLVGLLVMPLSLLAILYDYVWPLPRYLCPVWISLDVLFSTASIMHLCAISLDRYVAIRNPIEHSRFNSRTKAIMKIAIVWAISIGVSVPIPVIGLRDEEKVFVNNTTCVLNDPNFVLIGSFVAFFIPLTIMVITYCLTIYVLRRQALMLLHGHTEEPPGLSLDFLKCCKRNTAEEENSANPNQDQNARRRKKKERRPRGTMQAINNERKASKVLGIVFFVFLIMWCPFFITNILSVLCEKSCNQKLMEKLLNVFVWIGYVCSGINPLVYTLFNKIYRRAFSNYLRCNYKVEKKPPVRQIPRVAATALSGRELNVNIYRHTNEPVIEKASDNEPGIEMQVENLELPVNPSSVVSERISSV
Sequence of LIM domain kinase 1 (Homo sapiens) (P53667 whole entry, looked up, the tested form may be a part): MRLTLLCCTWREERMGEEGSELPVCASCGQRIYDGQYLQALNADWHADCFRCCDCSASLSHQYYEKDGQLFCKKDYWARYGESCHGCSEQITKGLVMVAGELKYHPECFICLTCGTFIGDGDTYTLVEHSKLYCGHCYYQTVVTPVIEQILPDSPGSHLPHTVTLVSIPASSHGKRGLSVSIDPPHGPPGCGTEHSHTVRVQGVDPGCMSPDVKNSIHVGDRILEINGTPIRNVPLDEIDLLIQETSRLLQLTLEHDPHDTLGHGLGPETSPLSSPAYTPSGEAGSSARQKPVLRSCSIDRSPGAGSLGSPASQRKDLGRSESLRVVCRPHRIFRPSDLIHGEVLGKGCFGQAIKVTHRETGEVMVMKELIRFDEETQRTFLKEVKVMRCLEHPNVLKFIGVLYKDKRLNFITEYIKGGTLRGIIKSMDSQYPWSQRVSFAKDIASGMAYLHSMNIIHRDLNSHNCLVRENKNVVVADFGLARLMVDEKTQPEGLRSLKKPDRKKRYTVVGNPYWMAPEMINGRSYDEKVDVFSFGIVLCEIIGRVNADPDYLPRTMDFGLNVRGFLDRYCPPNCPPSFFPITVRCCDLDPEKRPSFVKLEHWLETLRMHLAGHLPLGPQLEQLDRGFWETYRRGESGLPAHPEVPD
Sequence of Testis-specific serine/threonine-protein kinase 1 (Homo sapiens) (Q9BXA7 whole entry): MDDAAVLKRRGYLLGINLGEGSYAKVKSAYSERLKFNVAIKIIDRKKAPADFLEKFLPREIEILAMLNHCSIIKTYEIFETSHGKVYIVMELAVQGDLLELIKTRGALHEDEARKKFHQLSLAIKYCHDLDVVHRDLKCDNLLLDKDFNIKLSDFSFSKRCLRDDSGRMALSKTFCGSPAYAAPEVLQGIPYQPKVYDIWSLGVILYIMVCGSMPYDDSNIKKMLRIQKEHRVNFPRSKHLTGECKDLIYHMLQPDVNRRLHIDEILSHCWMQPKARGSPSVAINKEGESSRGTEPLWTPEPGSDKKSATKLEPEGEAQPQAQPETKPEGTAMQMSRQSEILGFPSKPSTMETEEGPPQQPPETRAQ

CCC(=O)N[C@H]1CC[C@@H](C(=O)N(C)c2ccc(-c3nc4ccccc4o3)cc2)C1 [BI 99179]
inactive: residual activity [1] 88% | residual activity [2] 72% | residual activity [3] 86% | residual activity [4] 97% | residual activity [5] 100% | residual activity [6] 85% | residual activity [7] 94% | residual activity [8] 56% | residual activity [9] 100% | residual activity [10] 91% | residual activity [11] 100% | residual activity [12] 100% | residual activity [13] 100% | residual activity [14] 100% | residual activity [15] 94% | residual activity [16] 57% | residual activity [17] 100% | residual activity [18] 86% | residual activity [19] 100% | residual activity [20] 87% | residual activity [21] 96% | residual activity [22] 97% | residual activity [23] 73% | residual activity [24] 100% | residual activity [25] 100% | residual activity [26] 100% | residual activity [27] 88% | residual activity [28] 100% | residual activity [29] 80% | residual activity [30] 86% | residual activity [31] 63% | residual activity [32] 100% | residual activity [33] 100% | residual activity [34] 100% | residual activity [35] 100% | residual activity [36] 85% | residual activity [37] 100% | residual activity [38] 91% | residual activity [39] 100% | residual activity [40] 92% | inhibition [41] 8.87% | inhibition [42] -1.4% | inhibition [43] 10.3% | inhibition [44] -0.421%

CCC(=O)N[C@@H]1CC[C@H](C(=O)N(C)c2ccc(-c3nc4ccccc4o3)cc2)C1 [BI 99990]
inactive: residual activity [1] 92% | residual activity [2] 77% | residual activity [3] 79% | residual activity [4] 100% | residual activity [5] 100% | residual activity [6] 100% | residual activity [7] 88% | residual activity [8] 100% | residual activity [9] 100% | residual activity [10] 86% | residual activity [11] 100% | residual activity [12] 100% | residual activity [13] 100% | residual activity [14] 100% | residual activity [15] 100% | residual activity [16] 100% | residual activity [17] 93% | residual activity [18] 100% | residual activity [19] 100% | residual activity [20] 100% | residual activity [21] 100% | residual activity [22] 87% | residual activity [23] 100% | residual activity [24] 82% | residual activity [25] 100% | residual activity [26] 100% | residual activity [27] 99% | residual activity [28] 95% | residual activity [29] 100% | residual activity [30] 57% | residual activity [31] 100% | residual activity [32] 85% | residual activity [33] 100% | residual activity [34] 100% | residual activity [35] 75% | residual activity [36] 82% | residual activity [37] 100% | residual activity [38] 76% | residual activity [39] 97% | residual activity [40] 82% | inhibition [41] 5.92% | inhibition [42] -9.11% | inhibition [43] 14.1% | inhibition [44] 15.4%
